Experimental findings from patent publication US20260216294A1, “BETA 2-ADRENERGIC RECEPTOR AGONISTS FOR TREATMENT OR PREVENTION OF MUSCLE WASTING” (ATROGI AB, priority 2023, published 2026) are described below.

The structures appear in SMILES notation.

For test [1], the system named is L6-myotubes. The experiment in a line: Glucose uptake in differentiated L6-myotubes (Biological Example 2). The class given is cell-based. The conditions noted are these: for Emax at 10 µM: read-out: Biological example 2 (GU). In outline: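 Uptake was quantified as radioactivity in 0.2 M NaOH lysates after a 10 min pulse of 50 nM ^3H-2-deoxyglucose. The pulse followed two agonist exposures at 1×10^−5 M final (isoprenaline or test compound): 1 h 40 min, then 20 min in glucose-free medium after washing. L6 myotubes had been starved overnight in medium with 0.5% fatty-acid-free BSA.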

The test system of test [2] is L6-myotubes. The experiment in a line: Measurement of intracellular cAMP levels in differentiated L6-myotubes (Biological Example 3). The class given is cell-based. Particulars: 0.25 h. In outline:
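Intracellular cAMP quantified by AlphaScreen after ethanol extraction and lysis of L6 myotubes. Cells were serum-starved overnight, then exposed for 15 min to compound (final 1×10^−5 M) or isoprenaline in IBMX-containing (1 mM) HBSS buffer, pH 7.4.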
For orientation: cAMP levels reflect the balance of adenylyl cyclase and phosphodiesterase activity.

Setting [3] is: glucose uptake, compound at 10 μM relative to isoproterenol at 10 μM.
[4] abbreviates: intracellular cAMP, compound at 10 μM relative to isoproterenol at 10 μM.
Where [5] appears, read: glucose uptake in differentiated L6-myotubes, compound at 10 μM, activity relative to isoproterenol at 10 μM.
Where [6] appears, read: intracellular cAMP in differentiated L6-myotubes, compound at 10 μM, activity relative to isoproterenol at 10 μM.

Consider `CCC[C@@H](C)NC[C@H](O)c1ccc(F)cc1` [Compound 52, (R)-2-[(R)-1-methylbutylamino]-1-(p-fluorophenyl)-1-ethanol], for which the Emax at 10 µM in test [1] (setting [3]) is 50 to 75%; in test [2] (setting [4]), < 25%.

Take `CS(=O)(=O)N(Cc1ccccc1)[C@H]1CC[C@@H](C[C@@H]2CC[C@H]([C@@H](O)c3cccc(F)c3)N2)CC1` [Compound 509, (S)-[(2R,5S)-5-({(1s,4R)-4-[(benzyl)-N-mesylamino]cyclohexyl}methyl)-2-pyrrolidinyl](m-fluorophenyl)methanol]: the Emax at 10 µM in test [1] (setting [5]) and in test [2] (setting [6]) was < 25% in each case.

With `CN(C)S(=O)(=O)[C@H]1CC[C@@H](CC(C)(C)NC[C@H](O)c2cncc(F)c2)CC1` [Compound 471], the Emax at 10 µM is > 75% in test [1] (setting [5]) and 50 to 75% in test [2] (setting [6]).

As for `COC(=O)[C@H]1CC[C@H](C(C)(C)NC[C@H](O)c2cccc(F)c2)CC1` [Compound 367, (1R,4r)-8-[(R)-2-(m-fluorophenyl)-2-hydroxyethylamino]-7-methoxy-p-menthan-7-one], the Emax at 10 µM is > 75% in test [1] (setting [5]) and 25 to 50% in test [2] (setting [6]).

Consider `CCC[C@H]1CC[C@H]([C@H](O)c2cccc(O)c2)N1` [Compound 125, m-{(R)-[(2R,5S)-5-propyl-2-pyrrolidinyl] hydroxymethyl}phenol], for which the results for the Emax at 10 µM in test [1] (setting [3]) and in test [2] (setting [4]) were 50 to 75% and < 25%, respectively.

Turning to `CCOC(=O)CO[C@H]1CC[C@@H](C(C)(C)NC[C@H](O)c2cccc(F)c2)CC1` [Compound 407, ethyl[[(1S,4s)-4-{1-[(R)-2-(m-fluorophenyl)-2-hydroxyethylamino]-1-methylethyl}cyclohexyloxy]]acetate], the Emax at 10 µM is 50 to 75% in test [1] (setting [5]) and < 25% in test [2] (setting [6]).

In the case of `O[C@@H](c1cccc(F)c1)[C@H]1CCC2(CC2)N1` [Compound 171], the Emax at 10 µM was 25 to 50% in test [1] (setting [3]) and < 25% in test [2] (setting [4]).

On to `CC(C)(C[C@H]1CC[C@H](NS(C)(=O)=O)CC1)NC[C@@H](O)c1cccc(C#N)n1` [Compound 428, 6-[(R)-2-{1,1-dimethyl-2-[(1r,4R)-4-(mesylamino)cyclohexyl]ethylamino}-1-hydroxyethyl]-2-pyridinecarbonitrile], for which the Emax at 10 µM in test [1] (setting [5]) and in test [2] (setting [6]) was < 25% throughout.

Take `CC(C)(C)NCC(O)c1ccncc1O` (stereo not shown) [Compound 134, 4-[2-(tert-butylamino)-1-hydroxyethyl]-3-pyridinol]: the Emax at 10 µM in test [1] (setting [3]) was > 75%; in test [2] (setting [4]) it was < 25%.

For `CCOC(=O)CO[C@H]1CC[C@H](C(C)(C)NC[C@H](O)c2cccc(F)c2)CC1` [Compound 398, ethyl[[(1R,4r)-4-{1-[(R)-2-(m-fluorophenyl)-2-hydroxyethylamino]-1-methylethyl}cyclohexyloxy]]acetate], the Emax at 10 µM in test [1] (setting [5]) was > 75%; in test [2] (setting [6]), < 25%.

With `CC(=O)N[C@H]1CC[C@@H](CC(C)(C)NC[C@H](O)c2cccc(C#N)n2)CC1` [Compound 421], the Emax at 10 µM was > 75% in test [1] (setting [5]) and < 25% in test [2] (setting [6]).

Take `CS(=O)(=O)N(Cc1ccccc1)CC12CCC([C@H](O)c3cccc(F)c3)(CC1)N2` [Compound 537, (R)-(4-{[(benzyl)-N-mesylamino]methyl}-7-azabicyclo[[2.2.1]]hept-1-yl)(m-fluorophenyl)methanol]: the Emax at 10 µM lay within 50 to 75% in test [1] (setting [5]) and 25 to 50% in test [2] (setting [6]).

With `CC(C)(C[C@H]1CC[C@@H](NS(C)(=O)=O)CC1)NC[C@H](O)c1cncc(F)c1` [Compound 468, (R)-2-{1,1-dimethyl-2-[(1s,4S)-4-(mesylamino)cyclohexyl]ethylamino}-1-(5-fluoro-3-pyridyl)-1-ethanol], the Emax at 10 µM was > 75% in test [1] (setting [5]) and < 25% in test [2] (setting [6]).

Consider `CO[C@H]1CC[C@H](CCCNC[C@H](O)c2cccc(F)c2)CC1` [Compound 259, (R)-1-(m-fluorophenyl)-2-{3-[(1r,4S)-4-methoxycyclohexyl]propylamino}-1-ethanol], for which the Emax at 10 µM in test [1] (setting [5]) was 25 to 50%; in test [2] (setting [6]), < 25%.

In the case of `CCC[C@H]1CCC[C@H]([C@@H](O)c2ccc(F)c(F)c2)N1` [Compound 65], the Emax at 10 µM in test [1] (setting [3]) was 25 to 50%; in test [2] (setting [4]), < 25%.

`CS(=O)(=O)N(Cc1ccccc1)c1cccc(CC23CCC([C@H](O)c4cccc(F)c4)(CC2)N3)c1` [Compound 513]: the Emax at 10 µM is 25 to 50% in test [1] (setting [5]) and < 25% in test [2] (setting [6]).

Take `O[C@H](c1cccc(F)c1)C12CCC(CCc3ccc(OC(F)(F)F)cc3)(CC1)N2` [Compound 546, (R)-(m-fluorophenyl){4-[2-(p-trifluoromethoxyphenyl)ethyl]-7-azabicyclo[[2.2.1]]hept-1-yl}methanol]: the Emax at 10 µM in test [1] (setting [5]) and in test [2] (setting [6]) was < 25% throughout.

With `Cn1ccc([C@@H](O)CNC(C)(C)C)cc1=O` [Compound 98, 4-[(R)-2-(tert-butylamino)-1-hydroxyethyl]-1-methyl-2(1H)-pyridinone], the Emax at 10 µM in test [1] (setting [3]) was > 75%; in test [2] (setting [4]) it was < 25%.

`CO[C@H]1CC[C@H](C(C)(C)NC[C@H](O)c2cncc(F)c2)CC1` [Compound 240, (R)-1-(5-fluoro-3-pyridyl)-2-{1-methyl-1-[(1r,4R)-4-methoxycyclohexyl]ethylamino}-1-ethanol]: the results for the Emax at 10 µM in test [1] (setting [5]) and in test [2] (setting [6]) were > 75% and < 25%, respectively.

On to `COc1ccc(C[C@@]2(C)CC[C@H]([C@@H](O)c3cccc(F)c3)N2)cc1` [Compound 365, (S)-{(2R,5R)-5-[(p-methoxyphenyl)methyl]-5-methyl-2-pyrrolidinyl}(m-fluorophenyl)methanol], for which the Emax at 10 µM is > 75% in test [1] (setting [5]) and < 25% in test [2] (setting [6]).

Consider `CC(C)(C[C@H]1CC[C@H](NC(=O)C2CC2)CC1)NC[C@H](O)c1cccc(F)c1` [Compound 432], for which the Emax at 10 µM in test [1] (setting [5]) and in test [2] (setting [6]) was > 75% each time.

With `CC(C)(C[C@H]1CC[C@@H](S(N)(=O)=O)CC1)NC[C@H](O)c1cccc(F)c1` [Compound 517, (1S,4s)-4-{2-[(R)-2-(m-fluorophenyl)-2-hydroxyethylamino]-2-methylpropyl} cyclohexanesulfonamide], the Emax at 10 µM in test [1] (setting [5]) is 25 to 50%; in test [2] (setting [6]), < 25%.

For `CC(C)(C[C@H]1CC[C@H](NS(C)(=O)=O)CC1)NC[C@H](O)c1cccc(F)c1` [Compound 382], the Emax at 10 µM was > 75% in test [1] (setting [5]) and 25 to 50% in test [2] (setting [6]).

For the compound `Oc1ccc(C(O)CNCCC2CC2)cc1` (stereo not shown) [Compound 24, p-[2-(2-cyclopropylethylamino)-1-hydroxyethyl]phenol], the Emax at 10 µM was 50 to 75% in test [1] (setting [3]) and < 25% in test [2] (setting [4]).

Regarding `CCC[C@@H]1CCC[C@H]([C@H](O)c2ccc(F)cc2)N1` [Compound 94], the Emax at 10 µM in test [1] (setting [3]) is 50 to 75%; in test [2] (setting [4]), < 25%.

With `CN(C)S(=O)(=O)[C@H]1CC[C@H](CC(C)(C)NC[C@H](O)c2cccc(F)c2)CC1` [Compound 464], the Emax at 10 µM in test [1] (setting [5]) and in test [2] (setting [6]) was 25 to 50% in each case.

`CCC[C@H]1CC[C@@H]([C@@H](O)c2cccc(F)c2)N1` [Compound 131, (S)-[(2S,5S)-5-propyl-2-pyrrolidinyl](m-fluorophenyl)methanol]: the Emax at 10 µM in test [1] (setting [3]) was 50 to 75%; in test [2] (setting [4]), < 25%.

`CCC[C@@H]1CCC[C@@H]([C@@H](O)c2cccc(O)c2)N1` [Compound 113]: the Emax at 10 µM in test [1] (setting [3]) is 50 to 75%; in test [2] (setting [4]) it was < 25%.

With `CS(=O)(=O)N[C@H]1CC[C@@H](C[C@@H]2CC[C@H]([C@H](O)c3cccc(F)c3)N2)CC1` [Compound 510, (R)-[(2R,5S)-5-{[(1s,4R)-4-(mesylamino)cyclohexyl]methyl}-2-pyrrolidinyl](m-fluorophenyl)methanol], the Emax at 10 µM in test [1] (setting [5]) was > 75%; in test [2] (setting [6]), < 25%.

In the case of `CC(C)(C[C@H]1CC[C@@H](S(N)(=O)=O)CC1)NC[C@H](O)c1cncc(F)c1` [Compound 519, (1S,4s)-4-{2-[(R)-2-(5-fluoro-3-pyridyl)-2-hydroxyethylamino]-2-methylpropyl} cyclohexanesulfonamide], the Emax at 10 µM in test [1] (setting [5]) is > 75%; in test [2] (setting [6]) it was < 25%.

With `CCC[C@@H]1CCC[C@@H]([C@H](O)c2cccc(O)c2)N1` [Compound 136], the Emax at 10 µM in test [1] (setting [3]) was > 75%; in test [2] (setting [4]), < 25%.

Consider `CC(C)(C[C@H]1CC[C@H](NS(=O)(=O)C2CC2)CC1)NC[C@H](O)c1cccc(F)c1` [Compound 496], for which the Emax at 10 µM in test [1] (setting [5]) was 50 to 75%; in test [2] (setting [6]), < 25%.

Consider `CCC[C@@H]1CC[C@H]([C@H](O)c2cncc(F)c2)N1` [Compound 160, (R)-[(2R,5R)-5-propyl-2-pyrrolidinyl](5-fluoro-3-pyridyl)methanol], for which the “Biological example 2 (GU)” value in test [1] (setting [3]) is recorded as “+++ (If a compound at 10 μM shows activity of more than 75% of that of isoproterenol at 10 μM, the activity is denoted with +++)”. Moreover, in test [2] (setting [4]), the Emax at 10 µM was < 25%.

Regarding `CCC[C@H]1CCC[C@H]([C@@H](O)c2cc(F)cc(F)c2)N1` [Compound 66], the Emax at 10 µM in test [1] (setting [3]) was 25 to 50%; in test [2] (setting [4]) it was < 25%.

Regarding `CC(C)(CC[C@H]1CC[C@@H](O)CC1)NC[C@H](O)c1cncc(F)c1` [Compound 296, (R)-2-{1,1-dimethyl-3-[(1s,4R)-4-hydroxycyclohexyl]propylamino}-1-(5-fluoro-3-pyridyl)-1-ethanol], the Emax at 10 µM in test [1] (setting [5]) was > 75%; in test [2] (setting [6]) it was < 25%.
